The source made the active and inactive calls. The rule behind the calls is not given here.
Tests used:
[1] = system: MCF7; test: Antitumor activity against human MCF7 cells assessed as inhibition of cell growth; assay type: functional, cell-based
[2] = system: K562; test: Antitumor activity against human K562 cells assessed as inhibition of cell growth; assay type: functional, cell-based
[3] = system: HL-60; test: Antitumor activity against human HL-60 cells assessed as inhibition of cell growth; assay type: functional, cell-based
[4] = system: K562; test: Induction of apoptosis in human K562 cells assessed as necrotic cells at 10 uM incubated for 24 hrs by Annexin V-FITC staining based flow cytometric analysis (reference value: 0.82 % ); assay type: functional
[5] = system: K562; test: Induction of apoptosis in human K562 cells assessed as early apoptotic cells at 10 uM incubated for 24 hrs by Annexin V-FITC staining based flow cytometric analysis (reference value: 3.90 % ); assay type: functional
[6] = system: K562; test: Induction of apoptosis in human K562 cells assessed as viable cells at 10 uM incubated for 24 hrs by Annexin V-FITC staining based flow cytometric analysis (reference value: 93.4 % ); assay type: functional; settings: read-out: Activity
[7] = system: K562; test: Induction of apoptosis in human K562 cells assessed as total apoptotic cells at 10 uM incubated for 24 hrs by Annexin V-FITC staining based flow cytometric analysis (reference value: 5.72 % ); assay type: functional
[8] = system: K562; test: Induction of apoptosis in human K562 cells assessed as late apoptotic cells at 10 uM incubated for 24 hrs by Annexin V-FITC staining based flow cytometric analysis (reference value: 1.82 % ); assay type: functional
[9] = system: K562; test: Induction of apoptosis in human K562 cells assessed as increase in cleaved caspase-3 expression by Western blot analysis; assay type: functional, cell-based; settings: dose 2.5-10 µM
[10] = molecular target: Crk-like protein (Homo sapiens) (UniProt P46109); test: Inhibition of CRKL phosphorylation in human K562 cells at 2.5 to 10 uM by Western blot analysis; assay type: cell-based; settings: dose 2.5-10 µM
[11] = system: K562; test: Induction of apoptosis in human K562 cells assessed as increase in caspase-3 expression by Western blot analysis; assay type: functional, cell-based; settings: dose 2.5-10 µM
[12] = molecular target: Tyrosine-protein kinase ABL1 (Homo sapiens) (UniProt P00519); test: Inhibition of ABL1 phosphorylation in human K562 cells at 2.5 to 10 uM by Western blot analysis; assay type: cell-based; settings: dose 2.5-10 µM
[13] = system: K562; test: Antimigratory activity against human K562 cells assessed as decrease in cell migration at 2.5 to 10 uM; assay type: functional, cell-based; settings: dose 2.5-10 µM
[14] = system: K562; test: Induction of apoptosis in human K562 cells assessed as necrotic cells at 5 uM incubated for 24 hrs by Annexin V-FITC staining based flow cytometric analysis (reference value: 0.82 % ); assay type: functional
[15] = system: K562; test: Induction of apoptosis in human K562 cells assessed as early apoptotic cells at 2.5 uM incubated for 24 hrs by Annexin V-FITC staining based flow cytometric analysis (reference value: 3.90 % ); assay type: functional
[16] = system: K562; test: Induction of apoptosis in human K562 cells assessed as late apoptotic cells at 2.5 uM incubated for 24 hrs by Annexin V-FITC staining based flow cytometric analysis (reference value: 1.82 % ); assay type: functional
[17] = system: K562; test: Induction of apoptosis in human K562 cells assessed as viable cells at 2.5 uM incubated for 24 hrs by Annexin V-FITC staining based flow cytometric analysis (reference value: 93.4 % ); assay type: functional; settings: read-out: Activity
[18] = system: K562; test: Induction of apoptosis in human K562 cells assessed as viable cells at 5 uM incubated for 24 hrs by Annexin V-FITC staining based flow cytometric analysis (reference value: 93.4 % ); assay type: functional; settings: read-out: Activity
[19] = system: K562; test: Induction of apoptosis in human K562 cells assessed as late apoptotic cells at 5 uM incubated for 24 hrs by Annexin V-FITC staining based flow cytometric analysis (reference value: 1.82 % ); assay type: functional
[20] = system: K562; test: Induction of apoptosis in human K562 cells assessed as early apoptotic cells at 5 uM incubated for 24 hrs by Annexin V-FITC staining based flow cytometric analysis (reference value: 3.90 % ); assay type: functional
[21] = system: K562; test: Induction of apoptosis in human K562 cells assessed as necrotic cells at 2.5 uM incubated for 24 hrs by Annexin V-FITC staining based flow cytometric analysis (reference value: 0.82 % ); assay type: functional

Crk-like protein (Homo sapiens), sequence (P46109 whole entry): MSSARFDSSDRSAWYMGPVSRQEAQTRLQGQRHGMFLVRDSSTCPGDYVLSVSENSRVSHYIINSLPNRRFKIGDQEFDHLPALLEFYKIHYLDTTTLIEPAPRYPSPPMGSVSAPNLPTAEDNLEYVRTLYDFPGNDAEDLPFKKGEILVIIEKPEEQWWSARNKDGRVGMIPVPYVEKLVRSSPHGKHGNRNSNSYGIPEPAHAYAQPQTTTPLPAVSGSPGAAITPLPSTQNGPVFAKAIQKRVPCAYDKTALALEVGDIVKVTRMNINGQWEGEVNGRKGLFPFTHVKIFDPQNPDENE
Tyrosine-protein kinase ABL1 (Homo sapiens), sequence (P00519 whole entry): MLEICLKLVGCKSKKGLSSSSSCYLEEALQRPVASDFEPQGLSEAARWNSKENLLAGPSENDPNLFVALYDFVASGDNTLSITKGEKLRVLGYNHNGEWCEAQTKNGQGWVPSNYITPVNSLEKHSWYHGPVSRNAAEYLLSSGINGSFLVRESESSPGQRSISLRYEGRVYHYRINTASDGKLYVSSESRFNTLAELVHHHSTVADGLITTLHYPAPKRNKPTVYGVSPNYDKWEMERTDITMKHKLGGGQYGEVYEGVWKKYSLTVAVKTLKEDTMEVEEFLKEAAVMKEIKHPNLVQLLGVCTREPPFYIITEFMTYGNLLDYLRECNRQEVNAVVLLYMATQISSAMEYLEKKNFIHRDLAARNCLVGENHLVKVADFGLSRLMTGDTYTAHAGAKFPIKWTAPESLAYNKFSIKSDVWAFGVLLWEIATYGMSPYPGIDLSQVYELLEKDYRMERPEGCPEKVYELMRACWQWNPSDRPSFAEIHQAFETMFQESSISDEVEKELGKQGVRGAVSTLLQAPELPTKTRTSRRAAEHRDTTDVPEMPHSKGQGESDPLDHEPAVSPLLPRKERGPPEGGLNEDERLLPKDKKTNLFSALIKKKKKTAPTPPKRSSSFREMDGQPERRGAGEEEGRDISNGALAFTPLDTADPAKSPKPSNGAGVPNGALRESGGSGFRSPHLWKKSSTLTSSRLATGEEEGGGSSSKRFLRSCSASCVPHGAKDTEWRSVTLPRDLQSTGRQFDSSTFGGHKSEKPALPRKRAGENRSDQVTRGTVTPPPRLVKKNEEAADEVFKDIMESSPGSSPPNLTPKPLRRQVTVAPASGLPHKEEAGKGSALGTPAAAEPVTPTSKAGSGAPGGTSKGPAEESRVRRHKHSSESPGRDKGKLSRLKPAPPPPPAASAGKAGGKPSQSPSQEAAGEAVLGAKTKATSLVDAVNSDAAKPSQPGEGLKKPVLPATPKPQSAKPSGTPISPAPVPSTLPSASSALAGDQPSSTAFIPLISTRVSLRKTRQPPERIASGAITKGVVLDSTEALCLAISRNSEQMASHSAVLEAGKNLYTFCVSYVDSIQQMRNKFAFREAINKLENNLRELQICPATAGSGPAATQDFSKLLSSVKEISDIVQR

SMILES	IC50 [1]	IC50 [2]	IC50 [3]	further results
Cc1cn(-c2cc(NC(=O)c3ccc(CN4CCN(C)CC4)cc3)cc(C(F)(F)F)c2)c(C)n1	9.61 µM	10.8 µM	17 µM	–
Cc1cn(-c2cccc(NC(=O)c3ccc(CN4CCN(C)CC4)cc3)c2)c(C)n1	> 50 µM	15.8 µM	36 µM	–
Cc1cn(-c2cc(NC(=O)c3ccc(CN4CCOC(C)C4)cc3)cc(C(F)(F)F)c2)cn1 (stereo unspecified)	> 50 µM	16.8 µM	25.8 µM	–
Cc1cn(-c2cc(NC(=O)c3ccc(CN4CCN(C(C)C)CC4)cc3)cc(C(F)(F)F)c2)cn1	13.1 µM	10.5 µM	14.8 µM	–
CN1CCN(Cc2ccc(C(=O)Nc3cc(-n4ccnc4)cc(C(F)(F)F)c3)cc2)CC1	29 µM	15.4 µM	18.8 µM	–
CCCCN1CCN(Cc2ccc(C(=O)Nc3ccc(C)c(-n4cnc(C)c4)c3)cc2)CC1	> 50 µM	33.2 µM	> 50 µM	–
Cc1cn(-c2cc(NC(=O)c3ccc(CN4CCOCC4)cc3)cc(C(F)(F)F)c2)cn1	> 50 µM	23.6 µM	> 50 µM	–
CCN1CCN(Cc2ccc(C(=O)Nc3cc(-n4cnc(C)c4)cc(C(F)(F)F)c3)cc2)CC1	> 50 µM	13.3 µM	17.2 µM	–
Cc1cn(-c2cc(NC(=O)c3ccc(CN4CCN(C)CC4)cc3)ccc2C)cn1	> 50 µM	39.7 µM	> 50 µM	–
CN1CCN(Cc2ccc(C(=O)Nc3cc(-n4cnc(C#N)c4)cc(C(F)(F)F)c3)cc2)CC1	15.6 µM	13.3 µM	18.6 µM	–
COc1ccc(NC(=O)c2ccc(CN3CCN(C)CC3)cc2)cc1-n1cc(C)nc1C	29.1 µM	31.4 µM	23.4 µM	–

Further lines, with some results ahead:

IC50 [1]	IC50 [2]	IC50 [3]	SMILES	further results
25.6 µM	14 µM	17.2 µM	Cc1ccc(NC(=O)c2ccc(CN3CCN(C)CC3)cc2)cc1Nc1nccc(-c2cccnc2)n1 [IMATINIB]	Activity [4]: 0.2%; Activity [5]: 4.9%; viability at 10 µM [6]: 76.7%; Activity [7]: 23.1%; Activity [8]: 18.2%
> 50 µM	> 50 µM	> 50 µM	CC(=O)N1CCN(Cc2ccc(C(=O)Nc3cc(-n4cnc(C)c4)cc(C(F)(F)F)c3)cc2)CC1	–
19 µM	13.6 µM	21.2 µM	Cc1cn(-c2cc(NC(=O)c3ccc(CN4CCN(C)CC4)cc3)cc(C(F)(F)F)c2)cn1	–
30.2 µM	22.4 µM	34.9 µM	CCCCN1CCN(Cc2ccc(C(=O)Nc3cc(-n4ccnc4)cc(C(F)(F)F)c3)cc2)CC1	–
20.1 µM	6.03 µM	17.9 µM	CCCCN1CCN(Cc2ccc(C(=O)Nc3cc(-n4cnc(C)c4)cc(C(F)(F)F)c3)cc2)CC1	Activity [9]: Dose-Dependent Effect; inhibition [10]: Active; Activity [11]: Dose-Dependent Effect; inhibition [12]: Active; Activity [13]: Active
40.6 µM	13.2 µM	22.1 µM	Cc1cn(-c2cc(NC(=O)c3ccc(CN4CC(C)OC(C)C4)cc3)cc(C(F)(F)F)c2)cn1 (stereo unspecified)	–
37.9 µM	13.4 µM	24.9 µM	Cc1cn(-c2cc(NC(=O)c3ccc(CN4CCCC4)cc3)cc(C(F)(F)F)c2)cn1	–
23.5 µM	5.66 µM	16.8 µM	Cc1cn(-c2cc(NC(=O)c3ccc(CN4CCN(C(C)(C)C)CC4)cc3)cc(C(F)(F)F)c2)cn1	Activity [9]: Dose-Dependent Effect; Activity [14]: 3.44%; Activity [4]: 4.56%; Activity [15]: 1.9%; Activity [5]: 3.02%; Activity [16]: 10.84%; inhibition [10]: Active; viability at 10 µM [6]: 57.9%; viability at 2.5 µM [17]: 86.3%; viability at 5 µM [18]: 71.1%; Activity [7]: 37.58%; Activity [19]: 22.68%; Activity [20]: 2.8%; Activity [11]: Dose-Dependent Effect; inhibition [12]: Active; Activity [21]: 1%; Activity [8]: 34.56%; Activity [13]: Active
> 50 µM	14.5 µM	13.3 µM	Cc1cn(-c2cc(NC(=O)c3ccc(CN4CCN(C(=O)C5CC5)CC4)cc3)cc(C(F)(F)F)c2)cn1	–
24.2 µM	24.1 µM	16.9 µM	Cc1cn(-c2cc(NC(=O)c3ccc(CN4CCOC[C@@H]4C)cc3)cc(C(F)(F)F)c2)cn1	–

Source: ChEMBL document CHEMBL5236671, “Synthesis and biological evaluation of novel aromatic amide derivatives as potential BCR-ABL inhibitors” (Bioorg Med Chem Lett, 2023)
